One assay relates to AMPA. Kind of assay: Cortical wedge model (electrophysiology, rat cortical wedge preparation), AMPA subtype. In kind it is cell-based. The conditions noted are these: receptor subtype AMPA; for EC50: agonist; for Ki: starred in IC50 column (*) = Ki value). The procedure:
(§1) The Cortical wedge model is a test in which slices of rat brain is examined in vitro in order to quantify the effect of ligands at the Glu-receptors and evaluate the pharmacological profile of the ligands (i.e. agonist/antagonist properties). The test was performed as described by Harrison, N.L. and Simmonds, M.A. Br.J. Pharmacol. 1985, 84, 381-391 as modified according to Wheatley, P.L. Br.J.Pharmacol. 1986, 87, 159P.

Another assay has as its target NMDA-receptor. Put plainly: [3H]CPP binding (displacement of [3H]CPP from the transmitter binding site). (Displacement assays read how much labelled ligand stays bound in the presence of the test substance.)
The next assay addresses AMPA receptors. Put plainly: [3H]AMPA binding (displacement of [3H]AMPA, in the presence of KSCN). The note with it: only high affinity binding sites labelled. How it is done: In this test the affinity of a drug for AMPA receptors is determined by measuring the ability to displace [^3H]AMPA from AMPA receptors.
The test was carried out in accordance with a modified version of the method of Honoré, T. and Nielsen, M., Neurosci.Lett. 1985, 54, 27-32. The test was carried out in the presence of KSCN. This means that only the [^3H]AMPA high affinity binding sites were labelled.
The membrane preparations used were obtained in accordance with the method of Ransom, R.W. and Stec, J.Neurochem. 1988, 51, 830-836.

The next assay deals with NMDA. Put plainly: Cortical wedge model (electrophysiology, rat cortical wedge preparation), NMDA subtype. In kind it is cell-based. The conditions noted are these: receptor subtype NMDA; for EC50: agonist; for IC50: antagonist. How it is done:
as §1

A further assay has as its system KAIN. Put plainly: Cortical wedge model (electrophysiology, rat cortical wedge preparation), KAIN subtype. The conditions noted are these: receptor subtype KAIN. In kind it is cell-based. The procedure:
as §1

This note sets out measurements from patent EP0994107A1, “5-Arylisoxazol-4-yl-substituted 2-amino carboxylic acid compounds” (H. LUNDBECK A/S, priority 1993, dated 1995).

What is called EC50 is the concentration needed to bring the measured effect to its halfway point. The term IC50 denotes the point on the concentration scale where inhibition reaches its midpoint. `NC(Cc1c(O)noc1-c1cccs1)C(=O)O` (racemic) [Compound 1a, (RS)-2-Amino-3-[3-hydroxy-5-(2-thienyl)isoxazol-4-yl]propionic Acid]: in the assay with AMPA, the Profile entry is given as “Agonist” and the EC50 turned out to be 5.8 µM. At NMDA-receptor, the IC50 is over 100 µM. Moreover, the IC50 on AMPA receptors stood at 0.28 µM.
The like results for `NC(Cc1c(O)noc1-c1ccsc1)C(=O)O` (racemic) [Compound 1b, (RS)-2-Amino-3-[3-hydroxy-5-(3-thienyl)isoxazol-4-yl]propionic Acid] were, in that order, “Agonist”, 43 µM, over 100 µM and 3.5 µM.
As to `Cc1ccc(-c2onc(O)c2CC(N)C(=O)O)s1` (racemic) [Compound 1f, (RS)-2-Amino-3-[3-hydroxy-5-(5-methyl-2-thienyl)isoxazol-4-yl]propionic Acid], in the assay on AMPA, the Profile result is “Agonist” and the 50% effective concentration (EC50) amounted to 130 µM.
Compound `NC(C(=O)O)c1c(O)noc1-c1ccccc1` (racemic) [Compound 2a, (RS)-2-Amino-2-(3-hydroxy-5-phenylisoxazol-4-yl)acetic Acid] came in with an IC50 on NMDA-receptor of 7.5 µM. For the same compound, in the assay on NMDA, the Profile entry is reported as “Part. Ago.#” and the EC50 was determined as 300 µM. In addition, at AMPA receptors, the IC50 worked out at 43 µM.
For the compound `NC(C(=O)O)c1c(O)noc1-c1cccs1` (racemic) [Compound 2b, (RS)-2-Amino-2-[3-hydroxy-5-(2-thienyl)isoxazol-4-yl]acetic Acid], in the assay with NMDA, the Profile entry is recorded as “Agonist” and the response was half-maximal at 30 µM (EC50).
On to `NC(CCCc1c(O)noc1-c1ccccc1)C(=O)O` (racemic) [Compound 3a, (RS)-2-Amino-5-(3-hydroxy-5-phenylisoxazol-4-yl)pentanoic Acid], for which the Profile result in the assay with AMPA is “Agonist”. Besides, the EC50 in the assay with AMPA was 240 µM. For the same compound, the IC50 at NMDA-receptor came out at 21 µM; at AMPA receptors it was 9 µM.
`NC(CCc1c(O)noc1-c1ccc(F)cc1)C(=O)O` (racemic) [Compound 4a, (RS)-2-Amino-4-[5-(4-fluorophenyl)-3-hydroxyisoxazol-4-yl]butanoic Acid]: the IC50 on NMDA-receptor is 0.76 µM; with NMDA, 9 µM; on AMPA receptors, over 100 µM. Besides, in the assay on NMDA, the Profile result is on record as “Antagonist”.
The matching figures for `NC(CCc1c(O)noc1-c1ccccc1)C(=O)O` (racemic) [Compound 4b, (RS)-2-Amino-4-(3-hydroxy-5-phenylisoxazol-4-yl)butanoic Acid]: 2.5 µM, 18 µM, over 100 µM and “Antagonist”.
On to `NC(CCc1c(O)noc1-c1cccs1)C(=O)O` (racemic) [Compound 4c, (RS)-2-Amino-4-[3-hydroxy-5-(2-thienyl)isoxazol-4-yl]butanoic Acid], for which the IC50 is 0.19 µM on NMDA-receptor, 2.5 µM in the assay with NMDA and over 100 µM on AMPA receptors. For the same compound, the Profile entry in the assay with NMDA was “Antagonist”.
On to `NC(CCc1c(O)noc1-c1ccsc1)C(=O)O` (racemic) [Compound 4d, (RS)-2-Amino-4-[3-hydroxy-5-(3-thienyl)isoxazol-4-yl]butanoic Acid], for which the IC50 on NMDA-receptor is 0.7 µM; in the assay with NMDA, 8.6 µM; on AMPA receptors it was over 100 µM. Further, the Profile entry with NMDA was “Antagonist”.
Regarding `NC(Cc1c(O)noc1-c1ccccn1)C(=O)O` (racemic) [Compound 13a, (RS)-2-Amino-3-[3-hydroxy-5-(2-pyridyl)isoxazol-4-yl)propionic Acid], in the assay with AMPA, the Profile result is “Agonist” and the EC50 was 55 µM.
The matching figures for `NC(Cc1c(O)noc1-c1ccncc1)C(=O)O` (racemic) [Compound 13b, (RS)-2-Amino-3-[3-hydroxy-5-(4-pyridyl)isoxazol-4-yl]propionic Acid]: “Agonist” and 7.4 µM.
The like results for `NC(Cc1c(O)noc1-c1ccc(F)cc1)C(=O)O` (single isomer, unassigned; (+)) [Compound 14d, (+)-2-Amino-3-[5-(4-fluorophenyl)-3-hydroxyisoxazol-4-yl]propionic Acid] were, in that order, “Agonist” and 170 µM.
Turning to `NC(Cc1c(O)noc1-c1cccs1)C(=O)O` (single isomer, unassigned; (+)) [Compound 15b, (+)-2-Amino-3-[3-hydroxy-5-(2-thienyl)isoxazol-4-yl]propionic acid], in the assay on AMPA, the Profile result was “Agonist” and the EC50 amounted to 2.7 µM.
By Ki is commonly meant the dissociation constant of the complex between target and ligand, obtained from inhibition or displacement. Low values mean higher affinity, high ones lower affinity. As for `NC(Cc1c(O)noc1-c1ccc(F)cc1)C(=O)O` (single isomer, unassigned; (-)) [Compound 14c, (-)-2-Amino-3-[5-(4-fluorophenyl)-3-hydroxyisoxazol-4-yl]propionic Acid], in the assay on AMPA, the Profile entry is “Antagonist” and affinity was put at a Ki of 337 µM.
On to `NC(Cc1c(O)noc1-c1cccs1)C(=O)O` (single isomer, unassigned; (-)) [Compound 15a, (-)-2-Amino-3-[3-hydroxy-5-(2-thienyl)isoxazol-4-yl]propionic Acid], for which, in the assay with AMPA, the Profile entry is reported as “Antagonist”. Half-maximal inhibition with AMPA (antagonist) (IC50) was put at 300 µM.
For the compound `Nc1c(NCc2c(O)noc2-c2ccccc2)c(=O)c1=O` [Compound 5a, 4-[(2-Amino-3,4-dioxo-1-cyclobuten-1-yl)aminomethyl]-3-hydroxy-5-phenylisoxazole], the Profile entry with AMPA, in the assay on NMDA and in the assay with KAIN was “Antagonist” in each case. Further, the IC50 on NMDA-receptor came out at 22 µM; on AMPA receptors, 33 µM.
On to `Nc1c(NCc2c(O)noc2-c2cccs2)c(=O)c1=O` [Compound 5b, 4-[(2-Amino-3,4-dioxo-1-cyclobuten-1-yl)aminomethyl]-3-hydroxy-5-(2-thienyl)isoxazole], for which the IC50 at NMDA-receptor was found to be 6.9 µM; with NMDA, 30 µM; at AMPA receptors, 38 µM. Also, the Profile entry with NMDA is “Antagonist”.
In the case of `Nc1c(NCc2c(O)noc2-c2ccsc2)c(=O)c1=O` [Compound 5c, 4-[(2-Amino-3,4-dioxo-1-cyclobuten-1-yl)aminomethyl]-3-hydroxy-5-(3-thienyl)isoxazole], the Profile result with AMPA and in the assay with NMDA was “Antagonist” each time.
Take `N[C@@H](Cc1c(O)noc1-c1ccccc1)C(=O)O` [Compound 14a, (S)-(+)-2-Amino-3-(3-hydroxy-5-phenylisoxazol-4-yl)propionic acid]: in the assay on AMPA, the Profile result is listed as “Agonist” and the EC50 came out at 230 µM. In addition, the concentration for half-maximal inhibition (IC50) at AMPA receptors came out at 5.5 µM.
On to `N[C@H](Cc1c(O)noc1-c1ccccc1)C(=O)O` [Compound 14b, (R)-(-)-2-Amino-3-(3-hydroxy-5-phenylisoxazol-4-yl)propionic acid], for which the Profile entry in the assay with AMPA and in the assay with KAIN was “Antagonist” throughout. Besides, the Ki was found to be 290 µM on AMPA and 950 µM at KAIN (starred in IC50 column (*) = Ki value)).
